Here are results for two compounds from BindingDB's records for doi:10.1016/j.bmcl.2015.04.045 (Chungbuk National University, 2015).

As a reminder, the IC50 is the concentration at which inhibition is half-maximal.

The assay addresses T1, Pancreatic triacylglycerol lipase (Sus scrofa, UniProt P00591).
T1 sequence (P00591 whole entry): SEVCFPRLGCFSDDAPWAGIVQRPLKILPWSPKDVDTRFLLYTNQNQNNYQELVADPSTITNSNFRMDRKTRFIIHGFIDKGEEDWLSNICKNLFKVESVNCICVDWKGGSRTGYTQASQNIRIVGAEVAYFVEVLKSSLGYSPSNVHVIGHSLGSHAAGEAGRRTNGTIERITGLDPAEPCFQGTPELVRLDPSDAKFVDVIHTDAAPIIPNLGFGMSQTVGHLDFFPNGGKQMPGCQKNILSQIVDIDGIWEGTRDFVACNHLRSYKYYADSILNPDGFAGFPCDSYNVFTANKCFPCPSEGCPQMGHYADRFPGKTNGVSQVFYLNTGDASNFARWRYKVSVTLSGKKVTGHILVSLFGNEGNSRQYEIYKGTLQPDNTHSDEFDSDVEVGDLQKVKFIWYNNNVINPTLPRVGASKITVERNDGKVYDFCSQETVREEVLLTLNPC
Description: Inhibition of porcine pancreatic lipase using p-nitrophenylbutyrate as substrate assessed as formation of p-nitrophenol preincubated for 15 mins followed by substrate addition measured after 15 mins.

In the case of `O=c1cc(O)cc2oc(-c3ccc(O)cc3)c(O[C@@H]3O[C@H](CO)[C@@H](O)[C@H](O)[C@H]3O)c(O)c1-2` [3,4',5,7-Tetrahydroxyflavone-3-glucoside], the IC50 is greater than 70 µM.
The result for `O=c1cc(O)cc2oc(-c3ccc(O)c(O)c3)c(O[C@@H]3O[C@H](CO)[C@@H](O)[C@H](O)[C@H]3O)c(O)c1-2` [Quercetin 3-O-beta-D-glucoside] reads greater than 70 µM.
